Measured values published in US20070054926A1 (priority 2003, published 2007).
Read-outs that look alike come from different tables or passages of the source.

Tested on: Phytophthora infestans
Type: in vivo
Conditions: individual active compound, protective, assessed 6 days after infection

Compound	Efficacy in % of the untreated control (4 ppm in the spray liquor) [%]	Efficacy in % of the untreated control (16 ppm in the spray liquor) [%]	Efficacy in % of the untreated control (63 ppm in the spray liquor) [%]
C[C@H](Nc1c(-c2c(F)cc(F)cc2F)c(Cl)nc2ncnn12)C(F)(F)F [B]	0	0	10
CC1CCN(c2c(-c3c(F)cccc3Cl)c(Cl)nc3ncnn23)CC1 [A]	0	0	0
CC1CCN(c2c(-c3c(F)cc(F)cc3F)c(Cl)nc3ncnn23)CC1 [compound I, 5-chloro-7-(4-methylpiperidin-1-yl)-6-(2,4,6-trifluorophenyl)-[1,2,4]triazolo[1,5-a]pyrimidine]	0	10	10
Fc1ccc([C@]2(Cn3cncn3)O[C@H]2c2ccccc2Cl)cc1 (racemic) [compound II, (2RS,3SR)-1-[3-(2-chlorophenyl)-2,3-epoxy-2-(4-fluorophenyl)-propyl]-1H-1,2,4-triazole]		10	
